Experimental data reported in PMC12732581, “Molecular and System-Level Characterization of MMP12 Suppression in Lung Cancer: A Combined Bioinformatics and Molecular Approach” (International Journal of Molecular Sciences, 2025).

Key:
[1] = molecular target: T1, recombinant human MMP12 (Homo sapiens, UniProt P39900); experiment: MMP12 colorimetric thiopeptide enzyme inhibition assay (Abcam); format: biochemical; conditions: at 50 µM
T1 construct: purchased Abcam
Description: The enzyme inhibition potential of synthesized p-chlorocinnamic acid derivatives against MMP12 was assessed using the Abcam colorimetric assay.
The inhibitory activity of the newly synthesized compounds against MMP12 was assessed using a previously established enzymatic assay protocol, as described in our earlier study. In brief, we conducted a colorimetric thiopeptide-based inhibition assay for MMP12 using recombinant human MMP12 and the reference inhibitor NNGH as a positive control. The IC50 values were calculated using GraphPad Prism version 9 (GraphPad Software, San Diego, CA, USA).

[2] = system: A549 lung cancer cells; experiment: MTT cell viability assay, A549; format: cell-based, human
Description: (§1) To evaluate the impact of MMP12 inhibitors on lung cancer cell lines, an MTT assay was performed on A549, H1299, and H661 cells exposed to varying concentrations of inhibitors over 48, 72, and 96 h.
(§2) The lung cancer cell lines referenced as A549, H1299, and H661 were acquired from the American Type Culture Collection (ATCC, Manassas, VA, USA). Fibroblast cells of dermal origin were used as a model for normal human tissue, which were also purchased from ATCC. A549, H1299, and H661 cells were maintained in the RPMI culture medium, while fibroblast cells were maintained in the DMEM high glucose culture medium. Both RPMI and DMEM culture media were supplemented with 100 U/mL penicillin, 0.1 mg/mL streptomycin to prevent bacterial growth, 10% FBS to promote cell growth, and 2 mM L-glutamine as an energy source.
(§3) The 3-(4,5-dimethylthiazol-2-yl)-2,5-diphenyltetrazolium bromide (MTT) assay was employed to evaluate cell proliferation as previously noted. All experiments were performed in triplicate wells and were repeated at least twice independently. The percentage of the relative cell viability of treated cells versus the untreated cells (negative controls) was calculated using the following formula in Equation (1) (cell viability calculation):(1) Cell viability%=optical density of treated cells/optical density of untreated cells×100

[3] = system: H1299 lung cancer cells; experiment: MTT cell viability assay, H1299; format: cell-based, human
Description: as §1, §2, §3

[4] = system: H661 lung cancer cells; experiment: MTT cell viability assay, H661; format: cell-based, human
Description: as §1, §2, §3

T1 sequence (P39900 106-470): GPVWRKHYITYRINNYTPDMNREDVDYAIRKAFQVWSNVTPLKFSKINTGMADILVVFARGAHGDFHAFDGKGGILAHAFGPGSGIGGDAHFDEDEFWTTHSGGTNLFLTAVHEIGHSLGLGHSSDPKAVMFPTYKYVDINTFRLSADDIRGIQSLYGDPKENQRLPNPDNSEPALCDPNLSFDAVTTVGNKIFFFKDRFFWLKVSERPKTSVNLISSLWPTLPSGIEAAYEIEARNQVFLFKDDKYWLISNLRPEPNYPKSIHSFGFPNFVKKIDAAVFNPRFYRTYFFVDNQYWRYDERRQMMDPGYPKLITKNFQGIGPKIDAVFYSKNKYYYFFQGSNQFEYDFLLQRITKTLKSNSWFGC

| MMP12 enzyme inhibition [1] | IC50 ([2]; A549, 48 h) | IC50 ([2]; A549, 72 h) | IC50 ([2]; A549, 96 h) | IC50 ([3]; H1299, 48 h) | IC50 ([3]; H1299, 72 h) | IC50 ([3]; H1299, 96 h) | IC50 ([4]; H661, 48 h) | IC50 ([4]; H661, 72 h) | IC50 ([4]; H661, 96 h) | SMILES |
| --- | --- | --- | --- | --- | --- | --- | --- | --- | --- | --- |
| 23.3% | 963 µM | 396 µM | 168 µM | 616 µM | 302 µM | 254 µM | 562 µM | 319 µM | 146 µM | Cc1ccc(NC(=O)/C=C/c2ccc(Cl)cc2)c(C(=O)c2ccccc2)c1 [Compound C4] |
| 11.5% | > 1000 µM | – | 865 µM | 636 µM | 449 µM | 419 µM | 489 µM | 366 µM | 226 µM | O=C(/C=C/c1ccc(Cl)cc1)Nc1ccccc1C(=O)c1ccccc1 [Compound C5] |
| 21.3% | > 1000 µM | > 1000 µM | 830 µM | 361 µM | 268 µM | 256 µM | 448 µM | 260 µM | 270 µM | Cc1ccc(C(=O)c2ccccc2NC(=O)/C=C/c2ccc(Cl)cc2)cc1 [Compound C6] |

| SMILES | MMP12 enzyme inhibition [1] | IC50 ([2]; A549, 48 h) | IC50 ([2]; A549, 72 h) | IC50 ([2]; A549, 96 h) | IC50 ([3]; H1299, 48 h) | IC50 ([3]; H1299, 72 h) | IC50 ([3]; H1299, 96 h) | IC50 ([4]; H661, 48 h) | IC50 ([4]; H661, 72 h) | IC50 ([4]; H661, 96 h) |
| --- | --- | --- | --- | --- | --- | --- | --- | --- | --- | --- |
| O=C(/C=C/c1ccc(Cl)cc1)Nc1ccc(Cl)cc1C(=O)c1ccccc1 [Compound C3] | 23.5% | 251 µM | 269 µM | 999 µM | 557 µM | 401 µM | 338 µM | 571 µM | 301 µM | 203 µM |
